Laboratory results published in patent publication US10842806B2, “Methods for treating ocular inflammatory disorders” (Massachusetts Eye and Ear Infirmary, priority 2011, dated 2020).

What was measured:
[1] = test system: CCL2/MCP-1; test: CCL2/MCP-1 ELISA in aqueous humor, retina and serum of EIU rats; format: in vivo, Lewis rats; details: LPS + AICAR
Procedure: Male Lewis rats ranging from 6-8 weeks old (Charles River, Wilmington, Mass.) were used for these studies. To study the effects of AICAR pretreatment, AICAR and PBS (for placebo treatment) were delivered via intraperitoneal injection of AICAR (50 mg/kg or 100 mg/kg body weight; Sigma) diluted in 150 μl PBS or equal volume of PBS at 6 hours before and at the same time as LPS injection. Four experimental groups of rats were compared: (1) Normal: no treatment (2) AICAR: normal rats treated with AICAR 6 hours before examination; (3) LPS: EIU rats treated with PBS; (4) LPS+AICAR: EIU rats treated with AICAR. Two additional groups of rats were used to study the effects of AICAR (50 mg/kg) given either at the same time as LPS injection or at 6 hours after LPS injection. Under deep anesthesia, experimental rats were sacrificed and the retinas were carefully removed 24 hours after LPS injection, placed into 200 μl of lysis buffer and then sonicated. The lysate was centrifuged at 13,000 rpm for 10 minutes at 4° C. and supernatant was isolated. Three hours after LPS injection, blood samples were collected from the heart and subsequently centrifuged at 3000 rpm for 30 minutes at 4° C., and serum samples were separated. Cytokine and chemokine levels in the serum, aqueous humor, and retina were assessed using the rat CCL2/MCP-1 kit (Invitrogen, Camarillo, Calif.), the rat TNF-α kit (R&D system, Minneapolis, Minn.) and the rat ICAM-1 kit (R&D systems) by ELISA.

[2] = test system: experimental autoimmune uveitis (EAU); test: Histological scoring of EAU (H&E sections); format: in vivo, C57BL/6 (WT) mice
[3] = test system: IRBP-reactive T cells (LN cells); test: LN cells from untreated EAU mice cultured with IRBP peptide in the presence of AICAR; format: cell-based
Procedure: To measure cell proliferation, LN cells were resuspended at 5×10^5 cells per 200 μl of medium in 96-well flat-bottom plates. Cells were incubated for 72 hours and proliferation during the last 12 hours was measured by using a bromodeoxyuridine (BrdU) cell proliferation assay kit (Millipore, Billerica, Mass.). Supernatant in the culture medium was collected at 48 hours and cytokine production in the supernatant was measured by ELISA using the Quantikine mouse IFN-γ, IL-4, IL-10 and IL-17 kits (R&D system, Minneapolis, Minn.).
To assess the effect of AICAR on already developed IRBP-specific T cells, LN cells from untreated EAU mice were cultured with IRBP peptide in the presence of AICAR (FIGS. 10A-10E). Specifically, LN cells were resuspended at 5×10^5 cells per 200 μl of medium in 96-well flat-bottom plates. Triplicate samples of cells were stimulated with or without IRBP at the indicated concentrations. AICAR was added at the indicated concentrations. Cell proliferation and cytokine production were measured as previously described in Example 10.

[4] = test system: AMPKα1 KO BMDCs; test: LPS-stimulated AMPKα1 KO BMDC maturation and cytokine production; format: cell-based, mice; details: after LPS stimulation with AICAR
Procedure: BMDCs were generated as previously described (Wang et al. (2005) IMMUNOL. LETT. 98:123-130). Briefly, bone marrow was flushed from the femurs and tibias of naive mice (6 to 8-week-old WT or AMPKα1 KO mice). The red blood cells were lysed using Red Blood Cell Lysing Buffer (Sigma). Approximately 2×10^6 cells were cultured in complete medium (RPMI 1640 medium containing 10% FBS, […], 10 mM HEPES [pH 7.4], 2 mM glutamine, 100 U/ml penicillin, and […]) including 10 ng/ml GM-CSF (Pepro Tech, London, England). Fresh media was added to the cells on day 4 of culture, and nonadherent cells and loosely adherent cells were collected as immature DCs on day 7. Immature DCs were stimulated with 100 ng/ml LPS (Salmonella typhimurium; Sigma) for 24 hours to obtain mature DCs. In some experiments, AICAR was added to the culture. […] After LPS stimulation for 24 hours, supernatant of the BMDC culture was collected and IL-6, TNF-α and IL12/23 p40 concentrations were measured (R&D system). […] In these experiments, AMPKα1 KO mice were provided as previously described (Jorgensen et al. (2004) J. BIOL. CHEM. 279:1070-1079). Since BMDCs expressed only AMPKα1, BMDCs were extracted from AMPK KO mouse and used to determine the role of AMPK in the anti-inflammatory effects of AICAR. As shown in FIGS. 14A and 14B, AICAR suppressed the maturation of AMPKα1 KO BMDCs.

Structure (SMILES): NC(=O)c1ncn([C@@H]2O[C@H](CO)[C@@H](O)[C@H]2O)c1N [AICAR, 5-aminoimidazole-4-carboxamide-1-β-d-ribofuranoside]
- MCP-1 in serum ([1]; 3 hours after LPS, n=11, LPS 6.8 ± 0.5): 0.4 ± 0.2 ng/mL
- MCP-1 in aqueous humor ([1]; 24 h after LPS, n=12, LPS 4.4 ± 3.9): 0.8 ± 1.0 ng/mL
- MCP-1 in retina ([1]; 24 h after LPS, n=14, LPS 18.7 ± 11.3): 8.8 ± 2.9 pg/total retinal protein
- EAU mean pathologic score ([2]; AICAR 200 mg/kg i.p. daily day 0 to 21, day 21, scale 0-4, control 1.65±0.68): 0.53±0.73
- EAU mean pathologic score, effector phase treatment ([2]; AICAR administered from day 8 to 21 after immunization, n=8, controls 1.03±0.75): 0.13±0.27
- IFN-γ production in vitro [3]: suppressed
- IL-4 production in vitro [3]: not significantly induced
- IL-10 production in vitro [3]: suppressed
- IL-17 production in vitro [3]: suppressed
- T cell proliferation in vitro [3]: suppressed
- CD40 expression in AMPKα1 KO BMDCs [4]: significantly suppressed
- CD80 expression in AMPKα1 KO BMDCs [4]: significantly suppressed
- CD86 expression in AMPKα1 KO BMDCs [4]: significantly suppressed
- I-A^b expression in AMPKα1 KO BMDCs [4]: significantly suppressed
- IL12/23 p40 production in AMPKα1 KO BMDCs [4]: suppressed
- IL-6 production in AMPKα1 KO BMDCs [4]: suppressed
- TNF-α production in AMPKα1 KO BMDCs [4]: suppressed
